The record followed here is ChEMBL document CHEMBL4002605, “Synthesis, identification and in vitro biological evaluation of some novel quinoline incorporated 1,3-thiazinan-4-one derivatives” (Bioorg Med Chem Lett, 2017).

In brackets after ≈: the same amount, converted by molar mass.

Broadly, the IC50 is the concentration that gives 50% inhibition. As a reminder, the MIC is the lowest concentration that inhibits growth of the organism. Low values mean a more susceptible organism, high ones a less susceptible organism. As a reminder, the inhibition is the percentage by which the read-out fell short of the control. High values mean a response far below the control, low ones a response near the control.

The subject of assay [1] is Plasmodium falciparum. The assay can be described thus: Antimalarial activity against Plasmodium falciparum. The assay is classed as functional.
The test system of assay [2] is Escherichia coli. Description: Antibacterial activity against Escherichia coli MTCC 443 by broth microdilution assay method. The assay is classed as functional.
Assay [3] relates to Clostridium tetani. The assay can be described thus: Antibacterial activity against Clostridium tetani MTCC 449 by broth microdilution assay method. The assay is classed as functional. In general terms: Broth dilution looks for growth in wells or tubes with falling amounts of substance.
Assay [4] deals with Vibrio cholerae. Description: Antibacterial activity against Vibrio cholerae MTCC 3906 by broth microdilution assay method. The assay is classed as functional.
Assay [5] relates to Streptococcus pneumoniae. Description: Antibacterial activity against Streptococcus pneumoniae MTCC 1936 by broth microdilution assay method. The assay is classed as functional.
Assay [6] relates to Mycobacterium tuberculosis. Description: Antitubercular activity against Mycobacterium tuberculosis H37Rv at 6 ug/mL. The assay is classed as functional.
Assay [7] relates to Bacillus subtilis. Description: Antibacterial activity against Bacillus subtilis MTCC 441 by broth microdilution assay method. The assay is classed as functional.
For assay [8], the system named is Salmonella typhi. Description: Antibacterial activity against Salmonella typhi MTCC 98 by broth microdilution assay method. The assay is classed as functional, Salmonella enterica subsp. enterica serovar Typhi. The note with it: Salmonella enterica.

Take `O=C1CCSC(c2ccc(Cl)cc2)N1CCCCNc1ccnc2cc(Cl)ccc12` (centres undefined): the IC50 in assay [1] amounted to 0.14 µg/mL (≈ 0.304 µM). Besides, the minimum inhibitory concentration (MIC) was found to be 250 µg/mL (≈ 543 µM) in assay [2]; 125 µg/mL (≈ 271 µM) in assay [3]; 62.5 µg/mL (≈ 136 µM) in assay [4]; 250 µg/mL (≈ 543 µM) in assay [5]; 250 µg/mL (≈ 543 µM) in assay [7]; 125 µg/mL (≈ 271 µM) in assay [8]. Moreover, in assay [6], the inhibition at 6 µg/mL worked out at 60%.

For `COc1ccc(C2SCCC(=O)N2CCCNc2ccnc3cc(Cl)ccc23)cc1` (centres undefined), the IC50 in assay [1] turned out to be 0.52 µg/mL (≈ 1.18 µM). For the same molecule, the minimum inhibitory concentration (MIC) in assay [2] came to 250 µg/mL (≈ 566 µM); in assay [3], 250 µg/mL (≈ 566 µM); in assay [4], 250 µg/mL (≈ 566 µM); in assay [5] it was 125 µg/mL (≈ 283 µM); in assay [7] it was 125 µg/mL (≈ 283 µM); in assay [8], 500 µg/mL (≈ 1130 µM). Moreover, testing at 6 µg/mL in assay [6] gave an inhibition of 57%.

In the case of `O=C1CCSC(c2ccc(Cl)cc2)N1CCCNc1ccnc2cc(Cl)ccc12` (centres undefined), 0.12 µg/mL (≈ 0.269 µM) corresponded to half-maximal inhibition in assay [1] (IC50). In addition, the minimum inhibitory concentration (MIC) in assay [2] was 125 µg/mL (≈ 280 µM); in assay [3], 250 µg/mL (≈ 560 µM); in assay [4] it was 250 µg/mL (≈ 560 µM); in assay [5] it was 62.5 µg/mL (≈ 140 µM); in assay [7], 125 µg/mL (≈ 280 µM); in assay [8] it was 250 µg/mL (≈ 560 µM). The molecule also gave an inhibition at 6 µg/mL in assay [6] of 67%.

The molecule `O=C1CCSC(c2ccc(Br)cc2)N1CCCCNc1ccnc2cc(Cl)ccc12` (centres undefined) returned a 50% inhibitory concentration (IC50) in assay [1] of 0.064 µg/mL (≈ 0.127 µM). In addition, the MIC in assay [2] is 62.5 µg/mL (≈ 124 µM); in assay [3], 250 µg/mL (≈ 495 µM); in assay [4], 125 µg/mL (≈ 248 µM); in assay [5], 100 µg/mL (≈ 198 µM); in assay [7], 100 µg/mL (≈ 198 µM); in assay [8] it was 62.5 µg/mL (≈ 124 µM). For the same molecule, testing at 6 µg/mL in assay [6] gave an inhibition of 82%.

Turning to `O=C1CCSC(c2cccc(Cl)c2)N1CCCNc1ccnc2cc(Cl)ccc12` (centres undefined), the IC50 in assay [1] was determined as 1.62 µg/mL (≈ 3.63 µM). The minimal inhibitory concentration (MIC) was 250 µg/mL (≈ 560 µM) in assay [2]; 250 µg/mL (≈ 560 µM) in assay [3]; 250 µg/mL (≈ 560 µM) in assay [4]; 250 µg/mL (≈ 560 µM) in assay [5]; 125 µg/mL (≈ 280 µM) in assay [7]; 250 µg/mL (≈ 560 µM) in assay [8]. The same molecule showed an inhibition at 6 µg/mL in assay [6] of 55%.

Take `O=C1CCSC(c2cccc(F)c2)N1CCCCNc1ccnc2cc(Cl)ccc12` (centres undefined): the IC50 in assay [1] stood at 1.31 µg/mL (≈ 2.95 µM). Further, the MIC in assay [2] turned out to be 125 µg/mL (≈ 282 µM); in assay [3] it was 125 µg/mL (≈ 282 µM); in assay [4], 125 µg/mL (≈ 282 µM); in assay [5], 250 µg/mL (≈ 563 µM); in assay [7], 250 µg/mL (≈ 563 µM); in assay [8], 100 µg/mL (≈ 225 µM). At 6 µg/mL the inhibition in assay [6] was 55%.

In assay [1], `O=C1CCSC(c2ccc(O)cc2)N1CCCNc1ccnc2cc(Cl)ccc12` (centres undefined) gave an IC50 of 1.14 µg/mL (≈ 2.66 µM). Further, the minimum inhibitory concentration (MIC) in assay [2] worked out at 250 µg/mL (≈ 584 µM); in assay [3] it was 250 µg/mL (≈ 584 µM); in assay [4] it was 250 µg/mL (≈ 584 µM); in assay [5], 125 µg/mL (≈ 292 µM); in assay [7], 250 µg/mL (≈ 584 µM); in assay [8] it was 62.5 µg/mL (≈ 146 µM). For the same molecule, in assay [6], the inhibition at 6 µg/mL is 42%.

`COc1cccc(C2SCCC(=O)N2CCCNc2ccnc3cc(Cl)ccc23)c1` (centres undefined): the IC50 in assay [1] was determined as 1.87 µg/mL (≈ 4.23 µM). The MIC turned out to be 250 µg/mL (≈ 566 µM) in assay [2]; 500 µg/mL (≈ 1130 µM) in assay [3]; 500 µg/mL (≈ 1130 µM) in assay [4]; 250 µg/mL (≈ 566 µM) in assay [5]; 250 µg/mL (≈ 566 µM) in assay [7]; 250 µg/mL (≈ 566 µM) in assay [8]. Further, in assay [6], the inhibition at 6 µg/mL came to 51%.

Regarding `COc1cccc(C2SCCC(=O)N2CCCCNc2ccnc3cc(Cl)ccc23)c1` (centres undefined), it took 2.14 µg/mL (≈ 4.69 µM) to reach half-maximal inhibition in assay [1] (IC50). In addition, the MIC in assay [2] was found to be 250 µg/mL (≈ 548 µM); in assay [3], 250 µg/mL (≈ 548 µM); in assay [4], 125 µg/mL (≈ 274 µM); in assay [5], 500 µg/mL (≈ 1100 µM); in assay [7], 500 µg/mL (≈ 1100 µM); in assay [8], 250 µg/mL (≈ 548 µM). The molecule further yielded an inhibition at 6 µg/mL in assay [6] of 42%.

In assay [1], `O=C1CCSC(c2ccccc2)N1CCCCNc1ccnc2cc(Cl)ccc12` (centres undefined) registered a concentration for half-maximal inhibition (IC50) of 3.12 µg/mL (≈ 7.32 µM). For the same molecule, the MIC in assay [2], in assay [3], in assay [4], in assay [5], in assay [7] and in assay [8] was 500 µg/mL (≈ 1170 µM) in each case. In addition, 6 µg/mL produced 32% inhibition in assay [6].

Take `O=C1CCSC(c2cccc(Cl)c2)N1CCNc1ccnc2cc(Cl)ccc12` (centres undefined): 1.57 µg/mL (≈ 3.63 µM) corresponded to half-maximal inhibition in assay [1] (IC50). In addition, the minimal inhibitory concentration (MIC) in assay [2] is 125 µg/mL (≈ 289 µM); in assay [3], 250 µg/mL (≈ 578 µM); in assay [4], 250 µg/mL (≈ 578 µM); in assay [5], 125 µg/mL (≈ 289 µM); in assay [7], 250 µg/mL (≈ 578 µM); in assay [8] it was 250 µg/mL (≈ 578 µM). This molecule also registered an inhibition at 6 µg/mL in assay [6] of 60%.

With `COc1ccc(C2SCCC(=O)N2CCCCNc2ccnc3cc(Cl)ccc23)cc1` (centres undefined), the midpoint of inhibition in assay [1], the IC50, lay at 0.81 µg/mL (≈ 1.78 µM). Moreover, the MIC in assay [2] stood at 500 µg/mL (≈ 1100 µM); in assay [3], 250 µg/mL (≈ 548 µM); in assay [4] it was 125 µg/mL (≈ 274 µM); in assay [5], 250 µg/mL (≈ 548 µM); in assay [7], 250 µg/mL (≈ 548 µM); in assay [8] it was 250 µg/mL (≈ 548 µM). Besides, the inhibition at 6 µg/mL in assay [6] was determined as 48%.

For the molecule `O=C1CCSC(c2cccc(F)c2)N1CCNc1ccnc2cc(Cl)ccc12` (centres undefined), the half-maximal inhibitory concentration (IC50) in assay [1] is 1.05 µg/mL (≈ 2.52 µM). Besides, the MIC in assay [2] was determined as 62.5 µg/mL (≈ 150 µM); in assay [3] it was 250 µg/mL (≈ 601 µM); in assay [4], 250 µg/mL (≈ 601 µM); in assay [5], 125 µg/mL (≈ 301 µM); in assay [7] it was 250 µg/mL (≈ 601 µM); in assay [8], 250 µg/mL (≈ 601 µM). Moreover, testing at 6 µg/mL in assay [6] gave an inhibition of 66%.
